Assays:
[1] = Steady-state pharmacokinetic parameters for Clonidine evaluated following transdermal administration of 0.1, 0,2 and 0.3 mg doses of Clonidine to the upper outer arm for 7 days.; conditions: human, in vivo, topical or ocular
[2] = Pharmacokinetic parameters for Clonidine evaluated following oral or intravenous administration of Clonidine to subjects.; conditions: human, in vivo

bioavailability at 168 h [1]: 60%
half-life at 168 h [1]: 24 h
CL renal [2]: 102 mL/min
Vd [2]: 197 L
clearance [2]: 177 mL/min
half-life [2]: 12 to 16 h
SMILES: Clc1cccc(Cl)c1N=C1NCCN1 [CLONIDINE]
